In patent US12264159B2, “Functionalized heterocycles as antiviral agents” (Enanta Pharmaceuticals, Inc., priority 2018, dated 2025):

Key:
[1] = Compound induced cellular toxicity in HepG2 cells, ATPlite 1Step; type: cell-based; conditions: human, three days exposure, 50% reduction of total ATP vs no drug controls
Protocol: At day 3, post seeding cells are treated with ATPlite 1Step according to the manufacturer's instructions.

[2] = system: HBV in 2.2.15 cells; test: 2.2.15 cells: viral product in cell lysates quantified via quantitative real time PCR; type: cell-based, hepatitis B virus (HBV); conditions: Hepatitis B virus, 120 h, day 5 post treatment, 50% reduction of viral product vs no drug controls, readout (qPCR, HBsAg or HBeAg) not specified for the column
Method in brief: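 HBV product was measured at day 5 by lysate qPCR or by supernatant HBsAg/HBeAg ELISA, in 2.2.15 cells seeded at 35,000/well and exposed to 5-fold compound dilution series (0.5% DMSO). EC50 is 50% reduction of viral product relative to untreated controls.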

Row | SMILES | CC50 at 3 days [1] | EC50 [2]
1 | CC(C)[C@@H]1Cn2nc(C3CC3)c(-c3cccs3)c2-c2cc(=O)c(C(=O)O)cn21 [Example 131, (R)-2-cyclopropyl-6-isopropyl-10-oxo-1-(thiophen-2-yl)-5,6-dihydro-10H-pyrazolo[1,5-a]pyrido[2,1-c]pyrazine-9-carboxylic acid] | > 25000 nM | < 100 nM
2 | CC(C)(C)[C@@H]1Cn2nc(-c3ccc4c(c3F)OCO4)cc2-c2cc(=O)c(C(=O)O)cn21 [Example 55, (R)-6-(tert-butyl)-2-(4-fluorobenzo[d][1,3]dioxol-5-yl)-10-oxo-5,6-dihydro-10H-pyrazolo[1,5-a]pyrido[2,2-c]pyrazine-12-carboxylic acid] | > 25000 nM | < 100 nM
3 | CC(C)(C)[C@@H]1Cn2nc(-c3ccccc3F)c(-c3ccccc3F)c2-c2cc(=O)c(C(=O)O)cn21 [Example 95, (R)-6-(tert-butyl)-1,2-bis(2-fluorophenyl)-10-oxo-5,6-dihydro-10H-pyrazolo[1,5-a]pyrido[2,1-c]pyrazine-9-carboxylic acid] | > 25000 nM | < 100 nM
4 | COc1ccc(OC)c(-c2cc3n(n2)C[C@@H](C(C)(C)C)n2cc(C(=O)O)c(=O)cc2-3)c1 [Example 32, (R)-6-(tert-butyl)-2-(2,5-dimethoxyphenyl)-10-oxo-5,6-dihydro-10H-pyrazolo[1,5-a]pyrido[2,2-c]pyrazine-12-carboxylic acid] | > 25000 nM | < 100 nM
5 | CC(C)[C@@H]1Cn2nc(-c3ccccc3)c(-c3ccccc3)c2-c2c(F)c(=O)c(C(=O)O)cn21 [Example 186, (R)-11-fluoro-6-isopropyl-10-oxo-1,2-diphenyl-5,6-dihydro-10H-pyrazolo[1,5-a]pyrido[2,1-c]pyrazine-9-carboxylic acid] | > 25000 nM | < 100 nM
6 | CC(C)[C@@H]1Cn2nc(C3CC3)c(-c3cccnc3)c2-c2cc(=O)c(C(=O)O)cn21 [Example 140, (R)-2-cyclopropyl-6-isopropyl-10-oxo-1-(pyridin-3-yl)-5,6-dihydro-10H-pyrazolo[1,5-a]pyrido[2,1-c]pyrazine-9-carboxylic acid] | > 25000 nM | < 100 nM
7 | CC(C)(C)[C@@H]1Cn2nc(C3CC3)c(-c3cccc4c3OC(F)(F)O4)c2-c2cc(=O)c(C(=O)O)cn21 [Example 150, (R)-6-(tert-butyl)-2-cyclopropyl-1-(2,2-difluorobenzo[d][1,3]dioxol-4-yl)-10-oxo-5,6-dihydro-10H-pyrazolo[1,5-a]pyrido[2,1-c]pyrazine-9-carboxylic acid] | > 25000 nM | < 100 nM
8 | CC(C)(C)[C@@H]1Cn2nc(C3CC3)c(-c3cc(F)ccc3F)c2-c2cc(=O)c(C(=O)O)cn21 [Example 155, (R)-6-(tert-butyl)-2-cyclopropyl-1-(2,5-difluorophenyl)-10-oxo-5,6-dihydro-10H-pyrazolo[1,5-a]pyrido[2,1-c]pyrazine-9-carboxylic acid] | > 25000 nM | < 100 nM
9 | CC(C)(C)[C@@H]1Cn2nc(-c3cccc4occc34)cc2-c2cc(=O)c(C(=O)O)cn21 [Example 28, (R)-2-(benzofuran-4-yl)-6-(tert-butyl)-10-oxo-5,6-dihydro-10H-pyrazolo[1,5-a]pyrido[2,2-c]pyrazine-12-carboxylic acid] | > 25000 nM | < 100 nM
10 | CC(C)[C@@H]1Cn2nc(-c3ccc(F)cc3)c(-c3ccc(F)cc3)c2-c2cc(=O)c(C(=O)O)cn21 [Example 180, (R)-1,2-bis(4-fluorophenyl)-6-isopropyl-10-oxo-5,6-dihydro-10H-pyrazolo[1,5-a]pyrido[2,1-c]pyrazine-9-carboxylic acid] | 10000 to 25000 nM | < 100 nM
11 | CC(C)(C)[C@@H]1Cn2nc(-c3cccc4ccoc34)cc2-c2cc(=O)c(C(=O)O)cn21 [Example 27, (R)-2-(benzofuran-7-yl)-6-(tert-butyl)-10-oxo-5,6-dihydro-10H-pyrazolo[1,5-a]pyrido[2,2-c]pyrazine-12-carboxylic acid] | > 25000 nM | < 100 nM
12 | CC(C)(C)[C@@H]1Cn2ncc(-c3ccc4c(c3F)OCO4)c2-c2cc(=O)c(C(=O)O)cn21 [Example 122, (R)-6-(tert-butyl)-1-(4-fluorobenzo[d][1,3]dioxol-5-yl)-10-oxo-5,6-dihydro-10H-pyrazolo[1,5-a]pyrido[2,1-c]pyrazine-9-carboxylic acid] | > 25000 nM | < 100 nM
13 | CC(C)(C)[C@@H]1Cn2nc(-c3ccccc3CO)cc2-c2cc(=O)c(C(=O)O)cn21 [Example 84, (R)-6-(tert-butyl)-2-(2-(hydroxymethyl)phenyl)-10-oxo-5,6-dihydro-10H-pyrazolo[1,5-a]pyrido[2,2-c]pyrazine-12-carboxylic acid] | > 25000 nM | 200 to 1000 nM
14 | CC(C)(C)[C@@H]1Cn2nc(-c3ccoc3)cc2-c2cc(=O)c(C(=O)O)cn21 [Example 4, (R)-6-(tert-butyl)-2-(furan-3-yl)-10-oxo-5,6-dihydro-10H-pyrazolo[1,5-a]pyrido[2,2-c]pyrazine-12-carboxylic acid] | > 25000 nM | 200 to 1000 nM
15 | COCCOc1ccccc1-c1cc2n(n1)C[C@@H](C(C)(C)C)n1cc(C(=O)O)c(=O)cc1-2 [Example 79, (R)-6-(tert-butyl)-2-(2-(2-methoxyethoxy)phenyl)-10-oxo-5,6-dihydro-10H-pyrazolo[1,5-a]pyrido[2,2-c]pyrazine-12-carboxylic acid] | > 25000 nM | < 100 nM
16 | CCOc1cc(F)ccc1-c1cc2n(n1)C[C@@H](C(C)(C)C)n1cc(C(=O)O)c(=O)cc1-2 [Example 72, (R)-6-(tert-butyl)-2-(2-ethoxy-4-fluorophenyl)-10-oxo-5,6-dihydro-10H-pyrazolo[1,5-a]pyrido[2,2-c]pyrazine-12-carboxylic acid] | > 25000 nM | < 100 nM
17 | CC(C)(C)[C@@H]1Cn2nc(-c3ccc(OC(F)(F)F)cc3)cc2-c2cc(=O)c(C(=O)O)cn21 [Example 25, (R)-6-(tert-butyl)-10-oxo-2-(4-(trifluoromethoxy)phenyl)-5,6-dihydro-10H-pyrazolo[1,5-a]pyrido[2,2-c]pyrazine-12-carboxylic acid] | > 25000 nM | 200 to 1000 nM
18 | CC(C)(C)[C@@H]1Cn2nc(-c3ccc(Cl)cc3)cc2-c2cc(=O)c(C(=O)O)cn21 [Example 13, (R)-6-(tert-butyl)-2-(4-chlorophenyl)-10-oxo-5,6-dihydro-10H-pyrazolo[1,5-a]pyrido[2,2-c]pyrazine-12-carboxylic acid] | > 25000 nM | < 100 nM
19 | C[C@@H]1Cn2nc(-c3ccccc3F)c(-c3ccccc3F)c2-c2cc(=O)c(C(=O)O)cn21 [Example 206, (R)-1,2-bis(2-fluorophenyl)-6-methyl-10-oxo-5,6-dihydro-10H-pyrazolo[1,5-a]pyrido[2,1-c]pyrazine-9-carboxylic acid] | 10000 to 25000 nM | < 100 nM
